Assay results published in US8389523B2, “Substituted quinoxaline and an agrochemical composition thereof” (Kumiai Chemical Industry Co., Ltd., priority 2007, dated 2013).

Legend:
Format in all cases: in vivo
Design in all cases: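 grade 0 to 5 of growth suppression where 5 is 90% or more and 0 below 10%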
[1] = tested on: Echinochloa oryzicola Vasing; assay: Herbicidal effects in paddy field soil treatment (Test Example 1); conditions: paddy field soil treatment; 1000 g of the active ingredient per hectare; wettable powder added dropwise on water surface; 21st day after treatment
Summary of the method: (§1)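 Application rate was 1000 g active ingredient per hectare, delivered as a diluted wettable powder onto the surface of 3 cm flood water, the day after seeds were sown in paddy soil. Effects were rated 21 days later.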

[2] = tested on: Monochoria vaginalis (Burm. f.) Presl var. plantaginea (Roxb.) Solms-Laub.; assay: as above; conditions: paddy field soil treatment; 1000 g of the active ingredient per hectare; wettable powder added dropwise on water surface; 21st day after treatment
Summary of the method: as §1

[3] = tested on: Scirpus juncoides Roxb. var. ohwianus. T. Koyama; assay: as above; conditions: paddy field soil treatment; 1000 g of the active ingredient per hectare; wettable powder added dropwise on water surface; 21st day after treatment
Summary of the method: as §1

[4] = tested on: Abutilon theophrasti medicus; assay: Herbicidal effects in upland field foliar treatment (Test Example 3); conditions: criteria of Table 138; for herbicidal effects on Abutilon theophrasti medicus: 1000 g of the active ingredient per hectare, 14th day after the treatment, wettable powder; for herbicidal effect (index) on Abutilon theophrasti medicus: 1000 g active ingredient per hectare, 14th day after treatment
Summary of the method: (§2)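 Dose was 1000 g of active ingredient per hectare, sprayed as a wettable powder in water at a volume of 1000 L/ha onto foliage of two-week-old greenhouse-grown plants in upland soil. Damage was assessed against rating criteria on the 14th day.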

[5] = tested on: Echinochloa crus-galli (L.) P. Beauv. var. crus-galli; assay: as above; conditions: criteria of Table 138; for herbicidal effects on Echinochloa crus-galli (L.) P. Beauv. var. crus-galli: 1000 g of the active ingredient per hectare, 14th day after the treatment, wettable powder; for herbicidal effect (index) on Echinochloa crus-galli (L.) P. Beauv. var. crus-galli: 1000 g active ingredient per hectare, 14th day after treatment
Summary of the method: as §2

Amaranthus viridis L. [6] = assay: as above; conditions: criteria of Table 138; for herbicidal effects on Amaranthus viridis L.: 1000 g of the active ingredient per hectare, 14th day after the treatment, wettable powder; for herbicidal effect (index) on Amaranthus viridis L.: 1000 g active ingredient per hectare, 14th day after treatment
Summary of the method: as §2

[7] = tested on: Abutilon theophrasti medicus; assay: Herbicidal effects in upland field soil treatment (Test Example 2); conditions: 1000 g active ingredient per hectare, 21st day after treatment, criteria of Table 138
Summary of the method: (§3)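 A wettable powder formulation, diluted with water, is applied to the soil surface after sowing and covering seeds in upland field soil, at a rate of 1000 g active ingredient per hectare. After greenhouse growth, herbicidal activity is graded by criteria at 21 days.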

Amaranthus viridis L. [8] = assay: as above; conditions: 1000 g active ingredient per hectare, 21st day after treatment, criteria of Table 138
Summary of the method: as §3

Structure (SMILES) | Herbicidal effects index, Echinochloa oryzicola Vasing [1] | Herbicidal effects index, Monochoria vaginalis (Burm. f.) Presl var. plantaginea (Roxb.) Solms-Laub. [2] | Herbicidal effects index, Scirpus juncoides Roxb. var. ohwianus. T. Koyama [3] | herbicidal effects on Abutilon theophrasti medicus [4] | herbicidal effects on Echinochloa crus-galli (L.) P. Beauv. var. crus-galli [5] | herbicidal effects on Amaranthus viridis L. (Amaranthus viridis L. [6]) | herbicidal effect (index) on Abutilon theophrasti medicus [7] | herbicidal effect (index) on Amaranthus viridis L. (Amaranthus viridis L. [8]) | herbicidal effect (index) on Abutilon theophrasti medicus [4] | herbicidal effect (index) on Echinochloa crus-galli (L.) P. Beauv. var. crus-galli [5] | herbicidal effect (index) on Amaranthus viridis L. (Amaranthus viridis L. [6])
CC(CCn1c(=O)c(C(=O)C2=C(O)CCCC2=O)nc2cccnc21)=C(F)F [III-232] | 5 | 5 | 5 | 5 | 5 | 5 | 5 | 5 |  |  | 
CCc1ccc(-n2c(=O)c(C(=O)C3=C(O)CCCC3=O)nc3cccnc32)cc1 [IV-24] | 5 | 5 | 5 | 4 | 5 | 5 | 5 | 5 |  |  | 
CCc1ccc(-n2c(=O)c(C(=O)C3=C(O)CCCC3=O)nc3ccccc32)cc1 [II-24] | 5 | 5 | 5 | 4 | 5 | 5 | 5 | 5 |  |  | 
CCCn1c(=O)c(C(=O)C2=C(O)CCCC2=O)nc2ccccc21 [Compound I-12] | 5 | 5 | 5 |  |  |  | 5 | 5 | 5 | 4 | 5
O=C1CCCC(O)=C1C(=O)c1nc2ccccc2n(-c2cccnc2)c1=O [I-185] | 5 | 5 | 5 |  |  |  | 5 | 5 | 5 | 5 | 5
O=C1CCCC(O)=C1C(=O)c1nc2ccccc2n(-c2ccc(OCC3CC3)cc2)c1=O [II-208] | 5 | 5 | 5 | 5 | 4 | 5 | 5 | 5 |  |  | 
COc1ccc2nc(C(=O)C3=C(O)CCCC3=O)c(=O)n(-c3ccc(OC(F)F)cc3)c2c1 [II-305] | 5 | 5 | 5 | 5 | 5 | 5 | 5 | 5 |  |  | 
COc1cc(OC)nc(-n2c(=O)c(C(=O)C3=C(O)CCCC3=O)nc3ccccc32)n1 [I-197] | 5 | 5 | 5 |  |  |  | 5 | 5 | 5 | 5 | 5
COc1ccc(-n2c(=O)c(C(=O)C3=C(O)CCCC3=O)nc3c(F)cc(F)cc32)cn1 [I-283] | 4 | 5 | 5 |  |  |  | 5 | 5 | 5 | 4 | 5
CC1(C)CC(=O)C(C(=O)c2nc3ccccc3n(-c3ccc4c(c3)OCCO4)c2=O)=C(O)C1 [II-228] | 5 | 5 | 5 | 5 | 5 | 5 | 5 | 5 |  |  | 
O=C1CCCC(O)=C1C(=O)c1nc2ccccc2n(-c2ccc(F)cc2)c1=O [II-8] | 5 | 5 | 5 |  |  |  | 5 | 5 | 5 | 5 | 5
COc1ccc(-n2c(=O)c(C(=O)C3=C(O)CCCC3=O)nc3ccccc32)cc1 [II-62] | 5 | 5 | 5 | 5 | 4 | 5 | 5 | 5 |  |  | 
O=C1CCCC(O)=C1C(=O)c1nc2ccccc2n(-c2ccccn2)c1=O [I-171] | 5 | 5 | 5 |  |  |  | 5 | 5 | 5 | 5 | 5
O=C1CCCC=C1C(=O)c1nc2ccccc2n(-c2ccccc2[N+](=O)[O-])c1=O [II-129] | 5 | 5 | 5 | 5 | 5 | 5 | 5 | 5 |  |  | 
